Data set [1] in a line: CD spectroscopy, helicity. Format: physicochemical. The note with it: CD at 50 µM, 5 °C, 25 mM sodium phosphate pH 6.8, 154 mM NaCl; for % Helicity: from MRE222 (100% = −38). An excerpt: (§1) Next, we used circular dichroism (CD) spectroscopy to probe the secondary structures of these WT CCD peptide assemblies. […] The spectra all had minima at 208 and 222 nm indicative of largely α-helical structures. From the high-concentration spectra we estimated ≈47% helix. To compare how the stabilities of these helical assemblies changed with concentration, we followed the changes in MRE222 with temperature over the same concentration range (Figure 2D, Table S1). Sigmoidal curves indicative of cooperative unfolding were apparent at all concentrations, indicating a cooperatively folded, oligomeric species. […] The temperature-dependent CD measurements were performed to determine the oligomerization-dependent thermal stability of the CCD. […] CD spectra of the peptides were recorded using a J-810 spectropolarimeter (Jasco) in a 0.1 cm and 1 cm quartz cuvette for far-UV CD spectroscopy, in a spectral range of 190 nm to 260 nm. The buffer used in the CD measurements was 25 mM sodium phosphate buffer pH = 6.8 with ionic strength of 154 mM (adjected by NaCl). The thermal melting of all STIL CCD peptides were measured as described. The graphs were fitted to Boltzmann equation in order to generate the Tm. Normalization to mean residue ellipticity was performed. The 100% helicity was calculated (with normalization to the length of the peptide and the condition of the measurement) as MRE × 10^−3 of −38 (Deg × cm^2 × dmol^−1 × res^−1).

For data set [2], the system named is STIL CCD peptide. Briefly: AUC sedimentation velocity (SV), oligomeric state. Type of data set: physicochemical. As to conditions: for oligomeric state (average number of monomers in the oligomer): continuous c(s), 25 mM sodium phosphate pH 6.8, NaCl. The method, then:
Previously, we and others have shown by size-exclusion chromatography and multi-angle light scattering that the oligomerization of a STIL CCD peptide is concentration dependent. However, these studies were qualitative and the interaction was not quantified. To quantify the oligomerisation of the STIL CCD peptide, analytical ultracentrifugation (AUC) sedimentation velocity (SV) and sedimentation equilibrium (SE) experiments were performed (Figure 2A, Table 1 and Figures S4–S9, S18 and S19). AUC-SV experiments were conducted at several concentrations to explore how the oligomeric state changed with concentration in the low-to-high µM concentration range, and also to estimate the dissociation constants of the oligomerization of the STIL CCD peptide.
(§2) Analytical ultracentrifugation (AUC) experiments were carried out using a Beckman Optima XL-A or XL-I analytical ultracentrifuge. Measurements were performed at 20 °C unless otherwise stated, using an An-50 or An-60 rotor, in Sodium Phosphate Buffer pH 6.8 (25 mM Na2PO4 with addition of 137 mM NaCl, pH measured using Jenway (TM) 3510 benchtop and adjusted using 1M HCl and 1M NaOH solutions). The partial specific volume ( υ¯ ) for each peptide were calculated in Sedfit using values from Cohn and Edsall. The buffer densities and viscosities were calculated using UltraScan III [54].
Sedimentation velocity (SV) experiments were performed in EPON 2-channel centerpieces with quartz windows or aluminium centrepieces with sapphire windows. The samples were centrifuged at 50 or 60 krpm where stated, with absorbance measurements taken from a radial range of 5.7–7.3 cm. 120 scans were taken at 5 min intervals, the data were fit in Sedfit to a continuous c(s) distribution model at a 95% confidence level. The frictional ration and baseline were floated, and Time-invariant and Radial-invariant noise were fit. Initially data were fit between a range of Svedberg ratio of 0–15, but this was reduced to 0–3 for all data as there were no larger species. The residuals for each individual fit are shown in Figures S14–S17 as a bitmap in which the color indicates the difference between the model fit and the raw data over the radial range to which the data were fitted. The scans are in vertical chronological order.

Data set [3] concerns STIL CCD peptide. Briefly: AUC sedimentation equilibrium (SE), oligomeric state. Format: physicochemical. As to conditions: absorbance 225 nm, 95% confidence limits; for AUC oligomeric state, SE: starting concentrations 5, 10, 20 µM, single ideal species fit, 20 °C, 25 mM phosphate pH 6.8; for mass, single species model, SE: starting concentrations 20, 10 and 5 µM. Here is the method: (§3) To quantify the dissociation constants of the possible monomer-dimer and dimer-tetramer transitions, we used fluorescence-based binding measurements. Using micro-scale thermophoresis, fluorescence measurements were taken at increasing concentrations of WT CCD peptide in a fixed background of 5 µM fluorophore-labelled peptide. […] Fitting the fluorescence data to the Hill equation provided a dissociation constant of 8 ± 2 µM and a cooperativity of 1.2 ± 0.3 (Figure 2B, Table S4). We interpret this as being for the monomer-dimer transition, and that the fluorescence measurements are insensitive to the higher-order oligomerization. […] To probe the possible dimer-tetramer transition, we turned to AUC-SE measurements with starting concentrations of 5, 10, and 20 µM of STIL WT CCD peptide (Figures S18 and S19). The equilibrated data were fitted first to a model for a single ideal species, which provided a species 2.9 × monomer mass (Table 1). […] It should be noted that the dimerization constant of the WT peptide was measured in the presence of 5% DMSO and using a fluorophore-labeled peptide, while the tetramerization constant was measured without DMSO and unlabeled peptides. The addition of the label and the presence of the DMSO, which was unavoidable for making the labeled peptide soluble, may have affected the measured dimerization constant. Thus, we avoid directly comparing the values obtained by the two methods.
as §2
AUC sedimentation equilibrium (SE) experiments were run at multiple concentrations in a 6-Channel Epon charcoal-filled centerpiece. The samples were centrifuged at a range of speeds between 22–48 krpm. Absorbance scans across the radial range were recorded twice at each speed to ensure equilibration. Data were fitted to single, ideal species models or monomer-dimer equilibrium using Sedphat. In total, 95% confidence limits were obtained via Monte-Carlo analysis of the obtained fits. The quality of the fit was evaluated using the χ^2 parameter to observe which model best fit the data. Both fits of the data, where performed in Figures S18–S23 with their corresponding fit information.

Data set [4] is classed as physicochemical. As to conditions: 50 µM; CD 222 nm, Boltzmann fit, 25 mM sodium phosphate pH 6.8, 154 mM NaCl.
Excerpt: as §1

For data set [5], the system named is STIL CCD peptide. Kind of data set: AUC-SE dimer-tetramer model, tetramerization KD. Type of data set: binding. The note with it: any experimental conditions; KDs could not be measured. The method, then: as §3
Analytical ultracentrifugation (AUC) experiments were carried out using a Beckman Optima XL-A or XL-I analytical ultracentrifuge. Measurements were performed at 20 °C unless otherwise stated, using an An-50 or An-60 rotor, in Sodium Phosphate Buffer pH 6.8 (25 mM Na2PO4 with addition of 137 mM NaCl, pH measured using Jenway (TM) 3510 benchtop and adjusted using 1M HCl and 1M NaOH solutions). The partial specific volume ( υ¯ ) for each peptide were calculated in Sedfit using values from Cohn and Edsall. The buffer densities and viscosities were calculated using UltraScan III [54]. […]

Data set [6] concerns the molecule itself. Briefly: AUC; sedimentation velocity, 100 µM peptide, c(s) distribution; 20 °C, sodium phosphate pH 6.8 with NaCl.
Data set [7] deals with the molecule itself. Briefly: AUC; sedimentation equilibrium, starting concentrations 5, 10 and 20 µM, unlabelled peptide, no DMSO; 20 °C, sodium phosphate pH 6.8 with NaCl; fitted to a single ideal species (N) and, for the WT, to a dimer-tetramer model (apparent KD: tetramer to dimers).
Data set [8] concerns the molecule itself. Briefly: AUC; sedimentation velocity, 10 µM peptide, c(s) distribution; 20 °C, 25 mM sodium phosphate pH 6.8, ionic strength 154 mM (NaCl).
The mark [9] stands for this setting: 10 µM, AUC-SV, 60 krpm, 20 °C, pH 6.8.
Setting [10] is: 10 µM, AUC-SV, 60 krpm, 20 °C, pH 6.8, 95% confidence level.
[11] abbreviates: 10 µM, AUC-SV, 60 krpm, 20 °C, absorbance, 95% confidence level.
Setting [12] is: 100 µM, AUC-SV, 60 krpm, pH 6.8.
Where [13] appears, read: 10 µM in legend of Figure S17 (second fit), 60 krpm.

No end group written: not given here.

“L SPDAYRF LTELDRQ LRLLQAQ IQRLLEA QSL-NH2 [STIL CCD718–749 Q729L, STIL CCD peptide with stabilising Q729L mutation; PDB 8oyl]”: in data set [1], the MRE222 nm is −25.3 kdeg cm^2 dmol^−1 res^−1. Besides, in data set [1], the “% Helicity” value came to 67%. For the same molecule, in the data set on STIL CCD peptide [2] (10 µM), the “Oligomeric State (at 10 µM)” value is on record as “Tetramer”. Moreover, the sw in the data set with STIL CCD peptide [2] (setting [9]) amounted to 1.484 S; with STIL CCD peptide [2] (100 µM, AUC-SV, 60 krpm, 20 °C, pH 6.8), 1.573 S. The “mw (solution mass from c(s) fit)” value in the data set on STIL CCD peptide [2] (setting [10]) is listed as 13538 Da; with STIL CCD peptide [2] (100 µM, AUC-SV, 60 krpm, 20 °C, pH 6.8, 95% confidence level) it was 15867 Da. The f/f0 with STIL CCD peptide [2] (10 µM, AUC-SV, 60 krpm, pH 6.8) amounted to 1.250; in the data set with STIL CCD peptide [2] (setting [12]), 1.323. Besides, the “sw(20,w)” value is recorded as 1.531 S with STIL CCD peptide [2] (10 µM, AUC-SV, 60 krpm, pH 6.8) and 1.622 S in the data set on STIL CCD peptide [2] (setting [12]). Besides, the “oligomeric state (average number of monomers in the oligomer)” value in the data set with STIL CCD peptide [2] (setting [11]) is 3.56 × monomer mass; with STIL CCD peptide [2] (100 µM, AUC-SV, 60 krpm, 20 °C, 95% confidence level, listed as STIL-Q729L) it was 4.1 × monomer mass. The “AUC oligomeric state, SE” value in the data set with STIL CCD peptide [3] is 3.47 ± 0.05 (5, 10, 20 µM) × monomer mass. The “mass, single species model, SE” value in the data set on STIL CCD peptide [3] is 13373 ± 200 Da. Also, in data set [4], the Tm was more than 95 °C. In addition, the “dissociation of tetramer (in words)” value with STIL CCD peptide [5] is “could not be dissociated under any experimental conditions”.
With “L SPDLYRF LTELDRQ LRLLQAQ IQRLLEA QSL-NH2 [STIL CCD718–749 A722L Q729L, STIL CCD peptide, double mutant of A722L and Q729L]”, in data set [1], the MRE222 nm is −30.7 kdeg cm^2 dmol^−1 res^−1 and the “% Helicity” value amounted to 81%. The “Oligomeric State (at 10 µM)” value in the data set with STIL CCD peptide [2] (10 µM) is listed as “Tetramer”. Besides, in the data set with STIL CCD peptide [2] (setting [13]), the f/f0 worked out at 1.390, the sw is 1.483 S and the “sw(20,w)” value was 1.530 S. The “mw (solution mass from c(s) fit)” value in the data set with STIL CCD peptide [2] (10 µM in legend of Figure S17 (second fit), 60 krpm, 95% confidence level) was 16134 Da. The “oligomeric state (multiple of monomer mass)” value in the data set with STIL CCD peptide [2] (10 µM in legend of Figure S17 (second fit), AUC-SV, 60 krpm, 95% confidence level) was 4.2 × monomer mass. This molecule displayed a sw in the data set with STIL CCD peptide [2] (setting [9]) of 1.452 S. For the same molecule, in the data set on STIL CCD peptide [2] (setting [10]), the “mw (solution mass from c(s) fit)” value is given as 16229 Da. In addition, in the data set on STIL CCD peptide [2] (10 µM, AUC-SV, 60 krpm, pH 6.8), the f/f0 turned out to be 1.411 and the “sw(20,w)” value is reported as 1.499 S. The “oligomeric state (average number of monomers in the oligomer)” value in the data set with STIL CCD peptide [2] (setting [11]) amounted to 4.22 × monomer mass. In addition, the “oligomeric state (average number of monomers in the oligomer)” value with STIL CCD peptide [2] (10 µM, AUC-SV, 60 krpm, 20 °C, absorbance, 95% confidence level, listed as STIL-A722L-Q729L) came to 4.2 × monomer mass. Further, in the data set on STIL CCD peptide [3], the “AUC oligomeric state, SE” value is on record as 3.24 ± 0.03 (5, 10, 20 µM) × monomer mass and the “mass, single species model, SE” value turned out to be 12446 ± 129 Da. Besides, the Tm in data set [4] is more than 95 °C. Moreover, the “dissociation of tetramer (in words)” value in the data set with STIL CCD peptide [5] is on record as “could not be dissociated under any experimental conditions”.

B1: STIL CCD_(718–749) A722L Q729L (peptide)
peptide: LSPDLYRFLTELDRQLRLLQAQIQRLLEAQSL-NH2
notes: STIL coiled-coil domain, residues 718-749, with A722L and Q729L; also called double mutant; source: synthetic peptide (Fmoc-SPPS on rink amide, RP-HPLC purified)
In the case of B1, the stoichiometry N (as a rule, the number of molecules, sites or subunits per partner or assembly) in data set [6] stood at 4; in data set [7] it was 3.24 ± 0.03; in data set [8], 4.22.

B2: STIL CCD_(718–749) A722L (peptide)
peptide: LSPDLYRFLTEQDRQLRLLQAQIQRLLEAQSL-NH2
notes: STIL coiled-coil domain, residues 718-749, with A722L; source: synthetic peptide (Fmoc-SPPS on rink amide, RP-HPLC purified)
With B2, the “stoichiometry N” value was determined as 4 in data set [6], 3.51 ± 0.02 in data set [7] and 3.92 in data set [8].

B3: STIL CCD_(718–749) Q729L (peptide)
peptide: LSPDAYRFLTELDRQLRLLQAQIQRLLEAQSL-NH2
notes: STIL coiled-coil domain, residues 718-749, with Q729L; also called STIL CCD Q729L; source: synthetic peptide (Fmoc-SPPS on rink amide, RP-HPLC purified)
Regarding B3, the “stoichiometry N” value in data set [6] was 4; in data set [7] it was 3.47 ± 0.05; in data set [8] it was 3.56.

For the origin of these results see PMC10572602, “Molecular Mechanism of STIL Coiled-Coil Domain Oligomerization” (International Journal of Molecular Sciences, 2023).
